Data set [1] in a line: Drying transformation relationship of Form A-F (vacuum drying, XRPD). Conditions: for Description / XRPD results: 60-80° C. vacuum drying; for Stability / conversion of crystal form on drying: dried at high temperatures, solvent removed.
A short description of data set [2]: Stability tests of crystal forms under accelerated and low-temperature storage (XRPD, HPLC). Type of data set: physicochemical. Conditions: for Polymorphic changes on storage (XRPD): accelerated test conditions (40° C., 75% RH) and low-temperature storage conditions (−20° C.).
The nature of data set [3]: Pharmacokinetic determination in rats (feed administration, plasma and brain). Conditions: 1200 ppm in AIN-76A standard feed, 7-day and 14-day groups, Cmax and AUC. Format: in vivo. The text has this: Plasma or brain samples from the 2 groups were collected for pharmacokinetic (PK) parameter analysis. For the 7-day group, plasma samples were collected on day 1, day 3, and day 7; after the rats were euthanized on day 7, brain tissue samples were collected. For the […], plasma samples were collected from rats on day 10 and 14; on day 14, the mice were euthanized, and brain tissue samples were collected.
For the processing of plasma samples, rats were anesthetized on days 1, 3, 7 and 10 and 14, and approximately 150 μL of blood was collected via cardiac puncture into anticoagulant centrifuge tubes containing K 2 EDTA. Within 15 minutes of sampling, plasma was obtained by centrifugation at 2000 g for 5 minutes at 4° C. and stored at below −60° C. until analysis. For the processing of brain tissue samples, the rats were euthanized on day 7 and 14, and then the brain tissue was collected. The residual blood on the surface of the tissue was washed away with normal saline, dried with filter paper, weighed, and frozen in dry ice, then store in a refrigerator below −60° C. until sample analysis. Pharmacokinetic (PK) parameters Cmax and AUC were calculated based on a non-compartmental model using WinNonlin 8.2 software. Drug concentrations in mouse plasma and brain tissue were determined.

In data set [4] the test system is microglia. The data set can be described thus: Pharmacological animal experiment: microglia clearance in mice fed PLX5622 crystal forms (IBA1 staining, Image j counting). Format: in vivo, C57BL/6J mice. The note with it: for Microglia clearance rate compared with Form A: 7-day or 14-day clearance rate, mice; for 7-day clearance rate / 14-day clearance rate / 7-day number of cells / 14-day number of cells: C57BL/6J mice, in AIN-76A food; for 7-day clearance rate / 14-day clearance rate: administration every other day, average clearance rate of microglia; for 7-day clearance rate / 7-day number of cells: 7 days; for 14-day clearance rate / 14-day number of cells: 14 days; for 7-day number of cells / 14-day number of cells: average statistical number of microglia (total number in brains). Here is the method:
Mice were adaptively fed for 3-6 days upon arrival in the mouse room, with AIN-76A food. Group A was administered PLX5622 compound Form A, and Group B was administered PLX5622 compound Form B.
Formal administration: Administration was conducted every other day, on days 1, 3, 5, 7, 9, 11, and 13. Each time of administration required weighing, and the amount was adjusted to 4 g per mouse (actual consumption around 3 g per mouse).
After anesthesia, mice were immobilized using tape or needles/pins, and the fur on the lateral thorax was lifted with forceps. The skin was then cut with scissors to expose the white sternum. The diaphragm was carefully incised with fine scissors, taking care not to damage the above heart.
A small incision was made on the right atrium. The heart was fixed with forceps, and an injection needle was inserted into the left ventricle from the apex of the heart at an angle roughly parallel to the left-right midline of the heart.
Sucrose gradient dehydration: The mouse brains were fixed in 4% paraformaldehyde overnight and then dehydrated with 20% sucrose solution until the material sank to the bottom, followed by dehydration with 30% sucrose solution until the material sank to the bottom. Embedding and sectioning: get 25-40 μm sections, which are the tissues that need to be stained.
• 1. After washing the sections, blocking was initiated with 5% BSA in PBST for 2 hours. • 2. Incubation with the primary antibody, IBA1 (1:500) in 1% BSA in PBST, at 4° C. for at least 14 hours. • 3. Incubation with Alexa Fluor-conjugated secondary antibody (1:500) in 1% BSA in PBST, at room temperature for 2 hours. • 4. Washed with PBS 3-5 times for 10 minutes each, stained with DAPI, followed by addition of anti-fade reagent, dried overnight, and then photographed and scanned for analysis.
Image j counting: All microglia with complete morphology need to be counted.
Among them, the mice are all 3-month-old male mice; the clearance rates are the average clearance rate and the average statistical number of microglia (total number in brains).

This is an account of results in patent US20250250268A1 (SHANGHAI HAOYUAN MEDCHEMEXPRESS CO., LTD., priority 2022, published 2025).

Entries after “also recorded” stand apart in the source; their conditions may differ.

As for `COc1ncc(F)cc1CNc1ccc(Cc2c[nH]c3ncc(C)cc23)c(F)n1` [Form E, 6-Fluoro-N-((5-fluoro-2-methoxypyridin-3-yl)methyl)-5-((5-methyl-1H-pyrrolo[2,3-b]pyridin-3-yl)methyl) pyridin-2-amine], in data set [1] (24 hours), the Description entry is “White to off-white” and the XRPD results is on record as “Form A + B”.

Regarding `COc1ncc(F)cc1CNc1ccc(Cc2c[nH]c3ncc(C)cc23)c(F)n1` [Form F, 6-Fluoro-N-((5-fluoro-2-methoxypyridin-3-yl)methyl)-5-((5-methyl-1H-pyrrolo[2,3-b]pyridin-3-yl)methyl) pyridin-2-amine], in data set [1] (24 hours), the Description result is listed as “White to off-white” and the XRPD results was “Form A + B”.

As for `COc1ncc(F)cc1CNc1ccc(Cc2c[nH]c3ncc(C)cc23)c(F)n1` [Form B, 6-Fluoro-N-((5-fluoro-2-methoxypyridin-3-yl)methyl)-5-((5-methyl-1H-pyrrolo[2,3-b]pyridin-3-yl)methyl) pyridin-2-amine], in data set [2] (40° C./75% RH, 5 Days), the “Individual Impurity (RRT/%) RRT = 1.04” value is reported as 0.05%, the “Individual Impurity (RRT/%) RRT = 1.29” value amounted to 0.03%, the “Purity (by HPLC %)” value was 99.92% and the XRPD result is given as “Form B”. In addition, in data set [2] (40° C./75% RH, 10 Days), the “Individual Impurity (RRT/%) RRT = 1.04” value is 0.05%, the “Individual Impurity (RRT/%) RRT = 1.29” value is listed as 0.03%, the “Purity (by HPLC %)” value was found to be 99.92% and the XRPD result is on record as “Form B”. In data set [2] (Initial, 0 Day), the “Individual Impurity (RRT/%) RRT = 1.04” value was found to be 0.05%, the “Individual Impurity (RRT/%) RRT = 1.29” value is given as 0.03%, the “Purity (by HPLC %)” value is listed as 99.92% and the XRPD entry was “Form B”. Besides, the “Polymorphic changes on storage (XRPD)” value in data set [2] is reported as “did not undergo any polymorphic changes”. Moreover, in data set [2] (−20° C., 10 months), the “Individual Impurity (RRT/%) RRT = 1.04” value turned out to be 0.05%, the “Individual Impurity (RRT/%) RRT = 1.29” value was 0.03%, the “Purity (by HPLC %)” value was 99.92% and the XRPD entry is “Form B”. For the same compound, the Pharmacokinetic performance result in data set [3] is “better pharmacokinetic performance”. For the same compound, in data set [4], the “Microglia clearance rate compared with Form A” value is given as “better than Form A”, the 7-day clearance rate is listed as 87%, the 14-day clearance rate was determined as 90% and the “7-day number of cells” value was “(482)”. In addition, in data set [4], the “14-day number of cells” value is on record as “(377)”. Besides, in data set [4] (listed as crystal form B), the “Microglia clearance rate compared with Form A” value is recorded as “better clearance rate of microglia cells at 7 or 14 days compared to crystal form A; also recorded: higher rate of microglia cell clearance at 7 days or 14 days”. Further, in data set [1] (3 days), the Description result is recorded as “White to off-white” and the XRPD results is “Form B”. Further, the “Stability / conversion of crystal form on drying” value (“Stability / conversion” for short) in data set [1] is “remain stable”.

As for `COc1ncc(F)cc1CNc1ccc(Cc2c[nH]c3ncc(C)cc23)c(F)n1` [Form D, 6-Fluoro-N-((5-fluoro-2-methoxypyridin-3-yl)methyl)-5-((5-methyl-1H-pyrrolo[2,3-b]pyridin-3-yl)methyl) pyridin-2-amine], in data set [1] (24 hours), the Description result was “White to off-white” and the XRPD results was “Form A”. Moreover, the “Stability / conversion” value in data set [1] is “converting it to Form A”.

Regarding `COc1ncc(F)cc1CNc1ccc(Cc2c[nH]c3ncc(C)cc23)c(F)n1` [Form C, 6-Fluoro-N-((5-fluoro-2-methoxypyridin-3-yl)methyl)-5-((5-methyl-1H-pyrrolo[2,3-b]pyridin-3-yl)methyl) pyridin-2-amine], in data set [1] (24 hours), the Description entry is given as “White to off-white” and the XRPD results is “Form A”. In addition, in data set [1], the “Stability / conversion” value was “converted to Form A”.

For `COc1ncc(F)cc1CNc1ccc(Cc2c[nH]c3ncc(C)cc23)c(F)n1` [Form A, 6-Fluoro-N-((5-fluoro-2-methoxypyridin-3-yl)methyl)-5-((5-methyl-1H-pyrrolo[2,3-b]pyridin-3-yl)methyl) pyridin-2-amine], in data set [2] (40° C./75% RH, 5 Days), the “Individual Impurity (RRT/%) RRT = 0.33” value was determined as 0.06%, the “Individual Impurity (RRT/%) RRT = 1.50” value was found to be 0.04%, the “Purity (by HPLC %)” value worked out at 99.90% and the XRPD result is “Form A”. Further, in data set [2] (40° C./75% RH, 10 Days), the “Individual Impurity (RRT/%) RRT = 0.33” value is recorded as 0.06%, the “Individual Impurity (RRT/%) RRT = 1.50” value came out at 0.04%, the “Purity (by HPLC %)” value is 99.90% and the XRPD result is “Form A”. Besides, in data set [2] (Initial, 0 Day), the “Individual Impurity (RRT/%) RRT = 0.33” value was determined as 0.06%, the “Individual Impurity (RRT/%) RRT = 1.50” value stood at 0.04%, the “Purity (by HPLC %)” value turned out to be 99.90% and the XRPD entry is listed as “Form A”. The “Polymorphic changes on storage (XRPD)” value in data set [2] is recorded as “did not undergo any polymorphic changes”. Also, in data set [2] (−20° C., 10 months), the “Individual Impurity (RRT/%) RRT = 0.33” value was 0.06%, the “Individual Impurity (RRT/%) RRT = 1.50” value turned out to be 0.04%, the “Purity (by HPLC %)” value is listed as 99.90% and the XRPD result is recorded as “Form A”. In data set [4], the 7-day clearance rate is 72.6%, the 14-day clearance rate is reported as 75.1%, the “7-day number of cells” value was “(1337)” and the “14-day number of cells” value is recorded as “(922)”. Also, in data set [1] (2 days), the Description entry is “White to off-white” and the XRPD results is on record as “Form A”. Besides, the “Stability / conversion” value in data set [1] is “remain stable”.
